Reference: ChEMBL document CHEMBL3868615, “Decahydrobenzoquinolin-5-one sigma receptor ligands: Divergent development of both sigma 1 and sigma 2 receptor selective examples” (Bioorg Med Chem Lett, 2016)

Assays:
[1] = biological target: T1, Kappa-type opioid receptor (Homo sapiens, UniProt P41145); assay: Displacement of [3H]U69593 from KOR (unknown origin) expressed in HEKT cells measured after 90 mins by microbeta scintillation counting method; type: cell-based
[2] = biological target: T2, 5-hydroxytryptamine receptor 1A (Homo sapiens, UniProt P08908); assay: Displacement of [3H]Way100635 from human 5-HT1A receptor expressed in CHO cells measured after 90 mins by microbeta scintillation counting method; type: cell-based
T2 sequence (P08908 whole entry): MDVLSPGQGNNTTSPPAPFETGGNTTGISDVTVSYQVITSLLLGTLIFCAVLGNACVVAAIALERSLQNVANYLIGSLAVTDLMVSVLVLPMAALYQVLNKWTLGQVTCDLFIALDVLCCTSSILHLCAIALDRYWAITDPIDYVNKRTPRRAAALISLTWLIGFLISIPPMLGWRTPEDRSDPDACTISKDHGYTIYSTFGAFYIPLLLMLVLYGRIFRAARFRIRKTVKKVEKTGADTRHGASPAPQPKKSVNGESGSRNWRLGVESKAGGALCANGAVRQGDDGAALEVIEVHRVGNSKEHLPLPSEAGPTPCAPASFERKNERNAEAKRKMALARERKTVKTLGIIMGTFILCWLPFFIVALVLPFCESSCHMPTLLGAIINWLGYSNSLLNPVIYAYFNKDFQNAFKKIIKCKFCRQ

[3] = biological target: 5-hydroxytryptamine receptor 1D (Homo sapiens, UniProt P28221); assay: Displacement of [3H]5-CT from human 5-HT1D receptor expressed in HEK-T cells measured after 90 mins by microbeta scintillation counting method; type: cell-based
Chain of 5-hydroxytryptamine receptor 1D (P28221 whole entry): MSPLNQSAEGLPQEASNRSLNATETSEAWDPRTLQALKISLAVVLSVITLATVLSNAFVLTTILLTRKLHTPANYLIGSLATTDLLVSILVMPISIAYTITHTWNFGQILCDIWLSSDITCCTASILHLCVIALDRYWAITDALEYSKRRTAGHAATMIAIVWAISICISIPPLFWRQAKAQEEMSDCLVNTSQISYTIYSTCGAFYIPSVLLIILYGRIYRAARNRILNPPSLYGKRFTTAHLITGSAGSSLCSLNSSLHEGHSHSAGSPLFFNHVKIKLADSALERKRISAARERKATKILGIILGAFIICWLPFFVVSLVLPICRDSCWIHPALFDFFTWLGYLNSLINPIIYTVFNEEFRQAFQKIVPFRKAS

[4] = biological target: 5-hydroxytryptamine receptor 2A (Homo sapiens, UniProt P28223); assay: Displacement of [3H]Ketanserin from 5-HT2A receptor (unknown origin) measured after 90 mins by microbeta scintillation counting method
Chain of 5-hydroxytryptamine receptor 2A (P28223 whole entry): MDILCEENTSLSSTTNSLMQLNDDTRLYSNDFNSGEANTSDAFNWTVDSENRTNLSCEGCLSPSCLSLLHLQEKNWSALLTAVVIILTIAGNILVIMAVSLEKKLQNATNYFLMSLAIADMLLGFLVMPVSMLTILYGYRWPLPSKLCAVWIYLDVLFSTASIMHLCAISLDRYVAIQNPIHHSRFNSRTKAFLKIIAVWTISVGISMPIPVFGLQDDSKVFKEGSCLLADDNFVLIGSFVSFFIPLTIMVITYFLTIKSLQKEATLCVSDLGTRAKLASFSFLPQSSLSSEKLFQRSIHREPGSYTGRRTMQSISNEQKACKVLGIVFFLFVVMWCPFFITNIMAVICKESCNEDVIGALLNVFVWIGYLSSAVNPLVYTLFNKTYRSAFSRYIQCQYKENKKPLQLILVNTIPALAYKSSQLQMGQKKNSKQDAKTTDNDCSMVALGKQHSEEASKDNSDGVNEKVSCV

[5] = biological target: 5-hydroxytryptamine receptor 2C (Homo sapiens, UniProt P28335); assay: Displacement of [3H]Mesulergine from human 5-HT2C receptor expressed in Flp-IN HEK cells measured after 90 mins by microbeta scintillation counting method; type: cell-based, HEK293
Chain of 5-hydroxytryptamine receptor 2C (P28335 whole entry): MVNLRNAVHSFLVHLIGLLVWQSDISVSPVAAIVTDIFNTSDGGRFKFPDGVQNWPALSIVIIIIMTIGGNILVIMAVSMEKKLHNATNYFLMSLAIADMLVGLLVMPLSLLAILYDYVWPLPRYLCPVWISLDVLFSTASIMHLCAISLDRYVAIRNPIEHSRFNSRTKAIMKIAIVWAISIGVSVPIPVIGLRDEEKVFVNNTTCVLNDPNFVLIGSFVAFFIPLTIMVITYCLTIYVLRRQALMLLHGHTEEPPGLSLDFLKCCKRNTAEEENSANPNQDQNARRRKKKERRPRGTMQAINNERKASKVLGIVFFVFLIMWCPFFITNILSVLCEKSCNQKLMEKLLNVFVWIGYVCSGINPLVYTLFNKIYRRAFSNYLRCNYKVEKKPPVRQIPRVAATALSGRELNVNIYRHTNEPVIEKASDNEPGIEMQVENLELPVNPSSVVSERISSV

[6] = biological target: 5-hydroxytryptamine receptor 3A (Homo sapiens, UniProt P46098); assay: Displacement of [3H]GR65630 from human 5-HT3 receptor expressed in HEK-T cells measured after 90 mins by microbeta scintillation counting method; type: cell-based
Chain of 5-hydroxytryptamine receptor 3A (P46098 whole entry): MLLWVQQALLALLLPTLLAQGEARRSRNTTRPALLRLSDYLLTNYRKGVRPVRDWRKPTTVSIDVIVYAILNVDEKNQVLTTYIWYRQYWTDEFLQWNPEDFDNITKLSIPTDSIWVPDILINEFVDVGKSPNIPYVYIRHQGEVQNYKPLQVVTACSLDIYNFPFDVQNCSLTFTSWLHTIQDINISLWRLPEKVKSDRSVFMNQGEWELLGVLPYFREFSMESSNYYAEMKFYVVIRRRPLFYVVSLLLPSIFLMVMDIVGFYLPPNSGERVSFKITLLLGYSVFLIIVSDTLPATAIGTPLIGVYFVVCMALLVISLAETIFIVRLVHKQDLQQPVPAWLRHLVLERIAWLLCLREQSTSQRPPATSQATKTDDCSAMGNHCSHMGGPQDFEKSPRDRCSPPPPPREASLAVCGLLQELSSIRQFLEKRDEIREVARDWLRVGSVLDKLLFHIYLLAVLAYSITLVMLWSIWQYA

[7] = biological target: Alpha-2A adrenergic receptor (Homo sapiens, UniProt P08913); assay: Displacement of [3H]Rauwolscine from human Alpha2A receptor expressed in MDCK cells measured after 90 mins by microbeta scintillation counting method; type: cell-based
Chain of Alpha-2A adrenergic receptor (P08913 whole entry): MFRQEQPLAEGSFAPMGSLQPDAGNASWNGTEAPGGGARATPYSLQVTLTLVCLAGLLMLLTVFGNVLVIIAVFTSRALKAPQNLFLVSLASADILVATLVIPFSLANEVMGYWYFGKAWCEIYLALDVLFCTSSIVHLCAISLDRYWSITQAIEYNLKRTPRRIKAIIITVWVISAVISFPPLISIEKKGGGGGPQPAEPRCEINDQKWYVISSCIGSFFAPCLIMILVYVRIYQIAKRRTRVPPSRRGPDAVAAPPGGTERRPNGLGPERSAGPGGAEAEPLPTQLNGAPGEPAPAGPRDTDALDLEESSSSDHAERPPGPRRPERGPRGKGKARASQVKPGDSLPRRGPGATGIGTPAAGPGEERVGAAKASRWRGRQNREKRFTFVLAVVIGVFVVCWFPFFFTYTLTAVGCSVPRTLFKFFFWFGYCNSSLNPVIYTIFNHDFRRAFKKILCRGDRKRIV

D(2) dopamine receptor = D(2) dopamine receptor (Homo sapiens, UniProt P14416); assay: Displacement of [3H]N-methylspiperone from human D2 receptor expressed in fibroblast cells measured after 90 mins by microbeta scintillation counting method; type: cell-based
Chain of D(2) dopamine receptor (P14416 whole entry): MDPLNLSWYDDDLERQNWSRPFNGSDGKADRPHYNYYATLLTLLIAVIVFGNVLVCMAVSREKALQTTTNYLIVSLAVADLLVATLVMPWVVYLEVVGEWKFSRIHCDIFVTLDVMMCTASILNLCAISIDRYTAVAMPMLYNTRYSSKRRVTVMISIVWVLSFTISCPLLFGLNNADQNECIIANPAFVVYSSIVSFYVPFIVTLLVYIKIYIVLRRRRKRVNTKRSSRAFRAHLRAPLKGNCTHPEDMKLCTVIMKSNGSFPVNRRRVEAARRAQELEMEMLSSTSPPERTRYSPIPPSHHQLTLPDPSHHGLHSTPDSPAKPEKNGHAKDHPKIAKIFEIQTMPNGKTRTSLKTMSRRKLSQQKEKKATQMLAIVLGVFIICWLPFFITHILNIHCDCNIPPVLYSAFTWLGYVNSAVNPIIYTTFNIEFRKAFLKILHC

Histamine H4 receptor = Histamine H4 receptor (Homo sapiens, UniProt Q9H3N8); assay: Displacement of [3H]Histamine from H4 receptor (unknown origin) measured after 90 mins by microbeta scintillation counting method
Chain of Histamine H4 receptor (Q9H3N8 whole entry): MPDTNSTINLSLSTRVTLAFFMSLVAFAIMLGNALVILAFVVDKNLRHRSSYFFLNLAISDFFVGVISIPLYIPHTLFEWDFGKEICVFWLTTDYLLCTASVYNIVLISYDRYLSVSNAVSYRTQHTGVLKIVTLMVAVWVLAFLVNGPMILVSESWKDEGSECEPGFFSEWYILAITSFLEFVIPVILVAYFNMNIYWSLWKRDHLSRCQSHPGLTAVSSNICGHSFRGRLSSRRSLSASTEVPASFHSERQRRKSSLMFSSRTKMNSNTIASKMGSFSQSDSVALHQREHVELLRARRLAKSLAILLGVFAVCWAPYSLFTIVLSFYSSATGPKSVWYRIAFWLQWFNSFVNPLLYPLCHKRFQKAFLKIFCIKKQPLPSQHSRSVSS

PC-12 = assay: Selectivity ratio of Ki for guinea pig sigma1 receptor to Ki for sigma2 receptor in rat PC12 cells; type: cell-based
[8] = biological target: Alpha-2A adrenergic receptor (Homo sapiens) (UniProt P08913); details: MDCK, 10 uM
Chain of Alpha-2A adrenergic receptor (Homo sapiens) (P08913 whole entry): as the sequence (P08913 whole entry) above

[9] = biological target: Alpha-2B adrenergic receptor (Homo sapiens) (UniProt P18089); details: HEK-T, 10 uM
[10] = biological target: Alpha-2C adrenergic receptor (Homo sapiens) (UniProt P18825); details: MDCK, 10 uM
[11] = biological target: T1, Kappa-type opioid receptor; details: HEKT, 10 uM
Mu-type opioid receptor = Mu-type opioid receptor (Homo sapiens, UniProt P35372); details: HEK293, 10 uM
Chain of Mu-type opioid receptor (P35372 whole entry): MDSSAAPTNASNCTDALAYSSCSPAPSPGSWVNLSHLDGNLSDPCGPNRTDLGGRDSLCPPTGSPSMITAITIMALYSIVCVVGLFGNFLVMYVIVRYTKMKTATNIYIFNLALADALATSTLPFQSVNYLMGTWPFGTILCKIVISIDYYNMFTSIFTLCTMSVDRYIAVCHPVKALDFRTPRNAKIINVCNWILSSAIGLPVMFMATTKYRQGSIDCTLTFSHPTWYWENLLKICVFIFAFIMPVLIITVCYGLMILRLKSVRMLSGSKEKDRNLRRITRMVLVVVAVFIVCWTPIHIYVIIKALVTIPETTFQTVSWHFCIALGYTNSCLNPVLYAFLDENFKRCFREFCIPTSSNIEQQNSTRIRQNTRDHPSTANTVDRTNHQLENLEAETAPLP

[12] = biological target: Muscarinic acetylcholine receptor M3 (Homo sapiens, UniProt P20309); assay: Binding affinity to human M3 receptor expressed in CHO cells at 10 uM measured after 90 mins by radioligand binding assay relative to control; type: cell-based
[13] = biological target: Muscarinic acetylcholine receptor M5 (Homo sapiens) (UniProt P08912); assay: Binding affinity to human M5 receptor expressed in CHO cells at 10 uM measured after 90 mins by radioligand binding assay relative to control; type: cell-based
[14] = biological target: 5-hydroxytryptamine receptor 2C (Homo sapiens) (UniProt P28335); details: HEK293, 10 uM
Chain of 5-hydroxytryptamine receptor 2C (Homo sapiens) (P28335 whole entry): as the sequence (P28335 whole entry) above

[15] = biological target: Sodium-dependent dopamine transporter (Homo sapiens, UniProt Q01959); details: HEK293, 10 uM
Histamine H3 receptor = Histamine H3 receptor (Homo sapiens, UniProt Q9Y5N1); details: HEK293, 10 uM
Chain of Histamine H3 receptor (Q9Y5N1 whole entry): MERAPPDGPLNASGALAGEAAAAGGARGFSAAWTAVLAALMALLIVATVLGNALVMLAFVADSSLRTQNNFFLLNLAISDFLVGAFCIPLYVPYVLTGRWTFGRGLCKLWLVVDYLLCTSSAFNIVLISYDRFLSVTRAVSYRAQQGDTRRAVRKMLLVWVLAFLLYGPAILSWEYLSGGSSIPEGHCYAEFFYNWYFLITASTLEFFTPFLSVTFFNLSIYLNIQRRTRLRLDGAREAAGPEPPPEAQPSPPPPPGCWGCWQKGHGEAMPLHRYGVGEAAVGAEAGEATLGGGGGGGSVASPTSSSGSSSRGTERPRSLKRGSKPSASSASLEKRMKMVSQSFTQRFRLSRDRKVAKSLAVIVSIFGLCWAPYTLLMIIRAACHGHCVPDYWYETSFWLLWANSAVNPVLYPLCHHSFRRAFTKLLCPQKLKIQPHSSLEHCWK

[16] = biological target: 5-hydroxytryptamine receptor 2B (Homo sapiens, UniProt P41595); details: HEK293, 10 uM
Chain of 5-hydroxytryptamine receptor 2B (P41595 whole entry): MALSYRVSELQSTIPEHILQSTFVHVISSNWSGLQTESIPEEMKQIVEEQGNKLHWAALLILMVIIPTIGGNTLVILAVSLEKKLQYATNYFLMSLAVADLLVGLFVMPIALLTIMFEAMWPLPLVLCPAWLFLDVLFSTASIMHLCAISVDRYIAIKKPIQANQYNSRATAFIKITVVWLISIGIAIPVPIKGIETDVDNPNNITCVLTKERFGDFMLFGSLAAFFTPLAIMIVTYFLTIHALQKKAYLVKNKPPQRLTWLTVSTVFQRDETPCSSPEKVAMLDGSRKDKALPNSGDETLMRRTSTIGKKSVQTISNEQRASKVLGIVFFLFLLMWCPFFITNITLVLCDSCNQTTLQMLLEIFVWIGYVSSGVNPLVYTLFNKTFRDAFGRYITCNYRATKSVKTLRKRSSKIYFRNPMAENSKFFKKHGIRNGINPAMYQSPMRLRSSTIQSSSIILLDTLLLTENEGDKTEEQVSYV

T1 sequence (P41145 whole entry): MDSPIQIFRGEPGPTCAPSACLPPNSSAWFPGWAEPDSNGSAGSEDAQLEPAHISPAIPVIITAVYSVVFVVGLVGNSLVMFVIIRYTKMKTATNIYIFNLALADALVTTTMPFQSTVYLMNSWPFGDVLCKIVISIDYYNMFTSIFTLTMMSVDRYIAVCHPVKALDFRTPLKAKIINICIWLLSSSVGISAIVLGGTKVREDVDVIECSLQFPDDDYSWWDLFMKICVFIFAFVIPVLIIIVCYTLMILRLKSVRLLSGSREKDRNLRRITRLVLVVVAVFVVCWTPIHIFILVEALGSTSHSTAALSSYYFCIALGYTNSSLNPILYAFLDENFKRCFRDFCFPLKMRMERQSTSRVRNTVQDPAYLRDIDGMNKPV

Compound | Ki [1] | Ki [2] | Ki [3] | Ki [4] | Ki [5] | Ki [6] | Ki [7] | Ki (D(2) dopamine receptor) | Ki (Histamine H4 receptor) | also measured
CCCN1CC[C@H]2c3cc4ccc(C(F)(F)F)cc4nc3[C@H](CC)[C@H]3CCC[C@@H]1[C@@H]32 | 0.416 µM | > 10 µM | > 10 µM | > 10 µM | > 10 µM | > 10 µM | 1.59 µM | > 10 µM | > 10 µM | Ratio Ki (PC-12): 28; inhibition [8]: > 50%; inhibition [9]: > 50%; inhibition [10]: > 50%; inhibition [11]: > 50%; inhibition (Mu-type opioid receptor): > 50%
CN1CC[C@H]2CC(=O)[C@H](Cc3ccccc3)[C@H]3CCC[C@@H]1[C@H]23 | > 10 µM | > 10 µM | > 10 µM | > 10 µM | 1.68 µM | > 10 µM | > 10 µM | > 10 µM | > 10 µM | Activity [12]: > 50%; Activity [13]: > 50%; inhibition [14]: > 50%; inhibition [15]: > 50%; inhibition (Histamine H3 receptor): > 50%; inhibition [16]: > 50%
